The values below come from ChEMBL document CHEMBL2074222, “Transport properties of nonsteroidal anti-inflammatory drugs by organic anion transporter 1 expressed in Xenopus laevis oocytes” (Mol Pharmacol, 1999).

What all share (assay type): functional, cell-based, Oocyte
Data set [1] concerns the target T1, Solute carrier family 22 member 6 (Rattus norvegicus, UniProt O35956).
T1 sequence (O35956 whole entry): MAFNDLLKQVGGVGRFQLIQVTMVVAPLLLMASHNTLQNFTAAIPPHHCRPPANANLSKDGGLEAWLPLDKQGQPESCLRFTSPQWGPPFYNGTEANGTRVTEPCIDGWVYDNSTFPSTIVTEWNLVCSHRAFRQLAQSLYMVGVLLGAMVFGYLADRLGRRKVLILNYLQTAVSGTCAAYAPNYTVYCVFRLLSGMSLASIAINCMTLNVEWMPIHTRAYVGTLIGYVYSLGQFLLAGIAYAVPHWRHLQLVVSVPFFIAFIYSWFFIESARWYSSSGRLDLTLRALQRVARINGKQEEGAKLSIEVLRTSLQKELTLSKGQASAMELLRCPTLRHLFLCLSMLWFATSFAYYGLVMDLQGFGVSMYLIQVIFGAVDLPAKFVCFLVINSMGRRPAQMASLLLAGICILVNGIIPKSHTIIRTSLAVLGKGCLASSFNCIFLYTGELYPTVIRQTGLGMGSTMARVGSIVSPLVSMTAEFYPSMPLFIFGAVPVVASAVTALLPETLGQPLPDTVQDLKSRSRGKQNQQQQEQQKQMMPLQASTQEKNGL
Briefly: TP_TRANSPORTER: inhibition of PAH uptake in Xenopus laevis oocytes.

The target of data set [2] is T2, Solute carrier family 22 member 6 (SLC22A6) (Rattus norvegicus, UniProt O35956).
T2 sequence (O35956 whole entry): T1 sequence (O35956 whole entry)
The experiment in a line: TP_TRANSPORTER: inhibition of PAH uptake (PAH: 2 uM, […]: 1000 uM) in Xenopus laevis oocytes. To be noted: probe PAH.

For data set [3], the target named is T2, Solute carrier family 22 member 6 (SLC22A6). Briefly: TP_TRANSPORTER: inhibition of PAH uptake (PAH: 2 uM, Antipyrine: 1000 uM) in Xenopus laevis oocytes. To be noted: probe PAH.
The target is the same in data set [4]. The experiment in a line: TP_TRANSPORTER: inhibition of PAH uptake (PAH: 2 uM, Benzydamine: 1000 uM) in Xenopus laevis oocytes. To be noted: probe PAH.
The target is the same in data set [5]. Briefly: TP_TRANSPORTER: inhibition of PAH uptake (PAH: 2 uM, Diclofenac: 1000 uM) in Xenopus laevis oocytes. To be noted: probe PAH.
Data set [6] has the same target. Briefly: TP_TRANSPORTER: inhibition of PAH uptake (PAH: 2 uM, Diflunisal: 1000 uM) in Xenopus laevis oocytes. To be noted: probe PAH.
Data set [7] shares this target. The experiment in a line: TP_TRANSPORTER: inhibition of PAH uptake (PAH: 2 uM, Flurbiprofen: 1000 uM) in Xenopus laevis oocytes. To be noted: probe PAH.
The target is the same in data set [8]. Briefly: TP_TRANSPORTER: inhibition of PAH uptake (PAH: 2 uM, Ketoprofen: 1000 uM) in Xenopus laevis oocytes. To be noted: probe PAH.
For data set [9] the target is unchanged. The experiment in a line: TP_TRANSPORTER: inhibition of PAH uptake (PAH: 2 uM, Meclofenamate: 1000 uM) in Xenopus laevis oocytes. To be noted: probe PAH.
For data set [10] the target is unchanged. Briefly: TP_TRANSPORTER: inhibition of PAH uptake (PAH: 2 uM, Phenylbutazone: 1000 uM) in Xenopus laevis oocytes. To be noted: probe PAH.
For data set [11] the target is unchanged. The experiment in a line: TP_TRANSPORTER: inhibition of PAH uptake (PAH: 2 uM, Tolmetin: 1000 uM) in Xenopus laevis oocytes. To be noted: probe PAH.

As usually defined, the Ki is the dissociation constant of the complex between target and ligand, obtained from inhibition or displacement. `CC(=O)Nc1ccc(O)cc1` [ACETAMINOPHEN]: the Ki in data set [1] worked out at 2100 µM. That is a millimolar value. A word on the inhibition: it is the percentage by which the read-out fell short of the control. Higher therefore signals strong suppression. `Cc1c(N(C)C)c(=O)n(-c2ccccc2)n1C` [AMINOPYRINE] displayed an inhibition at 1000 µM in [2] of 23.8%.

Consider `Cc1cc(=O)n(-c2ccccc2)n1C` [ANTIPYRINE], for which 1000 µM produced 37.8% inhibition in [3]. Regarding `NCc1ccccc1` [BENZYLAMINE], in data set [4], the inhibition at 1000 µM was determined as 60%. `O=C(O)Cc1ccccc1Nc1c(Cl)cccc1Cl` [DICLOFENAC] gave an inhibition at 1000 µM in [5] of 100%. Regarding `O=C(O)c1cc(-c2ccc(F)cc2F)ccc1O` [DIFLUNISAL], the inhibition at 1000 µM in data set [6] is 100%. In [7], `CC(C(=O)O)c1ccc(-c2ccccc2)c(F)c1` (stereo unspecified) [FLURBIPROFEN] yielded an inhibition at 1000 µM of 100%. Turning to `COc1ccc2c(c1)c(CC(=O)O)c(C)n2C(=O)c1ccc(Cl)cc1` [INDOMETHACIN], in [1], the affinity, expressed as Ki, was 10 µM.

As for `CC(C(=O)O)c1cccc(C(=O)c2ccccc2)c1` (stereo unspecified) [KETOPROFEN], the inhibition at 1000 µM in data set [8] was 100%. For `Cc1ccc(Cl)c(Nc2ccccc2C(=O)O)c1Cl` [MECLOFENAMIC ACID], in data set [9], the inhibition at 1000 µM worked out at 99.8%. In [1], `COc1ccc2cc([C@H](C)C(=O)O)ccc2c1` [NAPROXEN] had a Ki of 2 µM. This counts as single-digit micromolar.

As to `CCCCC1C(=O)N(c2ccccc2)N(c2ccc(O)cc2)C1=O` (stereo unspecified) [OXYPHENBUTAZONE ANHYDROUS], in data set [1], the affinity corresponds to a Ki of 32 µM. Compound `CCOc1ccc(NC(C)=O)cc1` [PHENACETIN] showed a Ki in data set [1] of 488 µM. In the case of `CCCCC1C(=O)N(c2ccccc2)N(c2ccccc2)C1=O` [PHENYLBUTAZONE], the inhibition at 1000 µM in [10] is 98.8%. `O=C(O)CNC(=O)c1ccccc1O` [SALICYLURIC ACID] displayed a Ki in data set [1] of 11 µM. In the case of `Cc1ccc(C(=O)c2ccc(CC(=O)O)n2C)cc1` [TOLMETIN], the inhibition at 1000 µM in [11] came to 99.5%.
